From paper PMC5814560, “6-Thioguanine is a noncompetitive and slow binding inhibitor of human deubiquitinating protease USP2” (Scientific Reports, 2018) come the findings set out here.

Assay [1] has as its target T1, USP2 (ubiquitin-specific protease 2) (Homo sapiens, UniProt O75604). The assay can be described thus: Ub-AFC deubiquitination kinetics, noncompetitive fit; very weak, called ineffective by the authors. It counts as biochemical. Also noted: catalytic domain, residues 258–605. The note with it: read-out: Kis.
Target sequence in this assay (O75604 258-605): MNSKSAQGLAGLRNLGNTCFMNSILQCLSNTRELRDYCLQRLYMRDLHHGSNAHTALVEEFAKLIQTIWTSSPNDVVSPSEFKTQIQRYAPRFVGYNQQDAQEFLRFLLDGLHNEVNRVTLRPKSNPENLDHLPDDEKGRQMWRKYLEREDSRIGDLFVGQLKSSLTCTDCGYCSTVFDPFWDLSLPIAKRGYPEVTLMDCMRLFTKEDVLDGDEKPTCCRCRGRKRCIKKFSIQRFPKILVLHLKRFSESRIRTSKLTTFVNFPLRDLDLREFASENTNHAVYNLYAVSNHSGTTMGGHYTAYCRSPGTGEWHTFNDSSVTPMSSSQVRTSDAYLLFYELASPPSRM
For assay [2], the target named is T1, USP2 (ubiquitin-specific protease 2). The assay can be described thus: X-ray crystal structure (soak, […] Å, about […] occupancy); Ub-AFC deubiquitination kinetics (Kis […], IC50 […]). Type of assay: biochemical. Also noted: catalytic domain, residues 258–605; with ubiquitin (Ub) in the crystal.
Target sequence in this assay (O75604 258-605, other chains not shown): as the sequence (O75604 258-605) above

As to `Sc1ncnc2nc[nH]c12` [6MP, 6-mercaptopurine], the Ki in assay [1] was found to be 349 ± 23.7 µM.

With `Nc1nc2nc[nH]c2c(=S)[nH]1` [6TG, 6-thioguanine], the Ki in assay [2] was 24.6 ± 1.8 µM.
